From BigSolDB 2.1

Nc1nc(N)c2nc(-c3ccccc3)c(N)nc2n1
solubility (mole fraction) (in 1,2-dichloroethane, 283.15 K): 1.72e-06 | solubility (mole fraction) (in 1,2-dichloroethane, 288.15 K): 2.31e-06 | solubility (mole fraction) (in 1,2-dichloroethane, 293.15 K): 3.52e-06 | solubility (mole fraction) (in 1,2-dichloroethane, 298.15 K): 5.23e-06 | solubility (mole fraction) (in 1,2-dichloroethane, 303.15 K): 7.52e-06 | solubility (mole fraction) (in 1,2-dichloroethane, 308.15 K): 1.07e-05 | solubility (mole fraction) (in 1,2-dichloroethane, 313.15 K): 1.7e-05 | solubility (mole fraction) (in 1,2-dichloroethane, 318.15 K): 2.38e-05 | solubility (mole fraction) (in 1,2-dichloroethane, 323.15 K): 3.55e-05 | solubility (mole fraction) (in 2-methoxyethanol, 283.15 K): 0.00188 | solubility (mole fraction) (in 2-methoxyethanol, 288.15 K): 0.00248 | solubility (mole fraction) (in 2-methoxyethanol, 293.15 K): 0.00338 | solubility (mole fraction) (in 2-methoxyethanol, 298.15 K): 0.00454 | solubility (mole fraction) (in 2-methoxyethanol, 303.15 K): 0.00605 | solubility (mole fraction) (in 2-methoxyethanol, 308.15 K): 0.00792 | solubility (mole fraction) (in 2-methoxyethanol, 313.15 K): 0.0106 | solubility (mole fraction) (in 2-methoxyethanol, 318.15 K): 0.014 | solubility (mole fraction) (in 2-methoxyethanol, 323.15 K): 0.0181 | solubility (mole fraction) (in DMSO, 293.15 K): 0.00201 | solubility (mole fraction) (in DMSO, 298.15 K): 0.00281 | solubility (mole fraction) (in DMSO, 303.15 K): 0.00381 | solubility (mole fraction) (in DMSO, 308.15 K): 0.00512 | solubility (mole fraction) (in DMSO, 313.15 K): 0.0068 | solubility (mole fraction) (in DMSO, 318.15 K): 0.00901 | solubility (mole fraction) (in DMSO, 323.15 K): 0.0118 | solubility (mole fraction) (in acetonitrile, 283.15 K): 2.52e-06 | solubility (mole fraction) (in acetonitrile, 288.15 K): 3.43e-06 | solubility (mole fraction) (in acetonitrile, 293.15 K): 5.17e-06 | solubility (mole fraction) (in acetonitrile, 298.15 K): 7.99e-06 | solubility (mole fraction) (in acetonitrile, 303.15 K): 1.16e-05 | solubility (mole fraction) (in acetonitrile, 308.15 K): 1.61e-05 | solubility (mole fraction) (in acetonitrile, 313.15 K): 2.43e-05 | solubility (mole fraction) (in acetonitrile, 318.15 K): 3.47e-05 | solubility (mole fraction) (in acetonitrile, 323.15 K): 4.99e-05 | solubility (mole fraction) (in ethyl acetate, 283.15 K): 2.91e-06 | solubility (mole fraction) (in ethyl acetate, 288.15 K): 4.53e-06 | solubility (mole fraction) (in ethyl acetate, 293.15 K): 7.32e-06 | solubility (mole fraction) (in ethyl acetate, 298.15 K): 9.44e-06 | solubility (mole fraction) (in ethyl acetate, 303.15 K): 1.42e-05 | solubility (mole fraction) (in ethyl acetate, 308.15 K): 1.95e-05 | solubility (mole fraction) (in ethyl acetate, 313.15 K): 2.8e-05 | solubility (mole fraction) (in ethyl acetate, 318.15 K): 3.98e-05 | solubility (mole fraction) (in ethyl acetate, 323.15 K): 6.09e-05 | solubility (mole fraction) (in isobutanol, 283.15 K): 2.88e-06 | solubility (mole fraction) (in isobutanol, 288.15 K): 4.02e-06 | solubility (mole fraction) (in isobutanol, 293.15 K): 6.12e-06 | solubility (mole fraction) (in isobutanol, 298.15 K): 8.74e-06 | solubility (mole fraction) (in isobutanol, 303.15 K): 1.23e-05 | solubility (mole fraction) (in isobutanol, 308.15 K): 1.71e-05 | solubility (mole fraction) (in isobutanol, 313.15 K): 2.55e-05 | solubility (mole fraction) (in isobutanol, 318.15 K): 3.79e-05 | solubility (mole fraction) (in isobutanol, 323.15 K): 5.43e-05 | solubility (mole fraction) (in isopropanol, 283.15 K): 2.02e-06 | solubility (mole fraction) (in isopropanol, 288.15 K): 3.53e-06 | solubility (mole fraction) (in isopropanol, 293.15 K): 4.92e-06 | solubility (mole fraction) (in isopropanol, 298.15 K): 7.42e-06 | solubility (mole fraction) (in isopropanol, 303.15 K): 1.06e-05 | solubility (mole fraction) (in isopropanol, 308.15 K): 1.47e-05 | solubility (mole fraction) (in isopropanol, 313.15 K): 2.08e-05 | solubility (mole fraction) (in isopropanol, 318.15 K): 2.93e-05 | solubility (mole fraction) (in isopropanol, 323.15 K): 4.19e-05 | solubility (mole fraction) (in methanol, 283.15 K): 2.91e-05 | solubility (mole fraction) (in methanol, 288.15 K): 4.31e-05 | solubility (mole fraction) (in methanol, 293.15 K): 6.36e-05 | solubility (mole fraction) (in methanol, 298.15 K): 8.42e-05 | solubility (mole fraction) (in methanol, 303.15 K): 0.000127 | solubility (mole fraction) (in methanol, 308.15 K): 0.000169 | solubility (mole fraction) (in methanol, 313.15 K): 0.00024 | solubility (mole fraction) (in methanol, 318.15 K): 0.00032 | solubility (mole fraction) (in methanol, 323.15 K): 0.000449 | solubility (mole fraction) (in n-butanol, 283.15 K): 3.32e-06 | solubility (mole fraction) (in n-butanol, 288.15 K): 5.33e-06 | solubility (mole fraction) (in n-butanol, 293.15 K): 8.08e-06 | solubility (mole fraction) (in n-butanol, 298.15 K): 1.15e-05 | solubility (mole fraction) (in n-butanol, 303.15 K): 1.61e-05 | solubility (mole fraction) (in n-butanol, 308.15 K): 2.11e-05 | solubility (mole fraction) (in n-butanol, 313.15 K): 3.11e-05 | solubility (mole fraction) (in n-butanol, 318.15 K): 4.32e-05 | solubility (mole fraction) (in n-butanol, 323.15 K): 6.48e-05 | solubility (mole fraction) (in n-methylformamide, 283.15 K): 0.000547 | solubility (mole fraction) (in n-methylformamide, 288.15 K): 0.000726 | solubility (mole fraction) (in n-methylformamide, 293.15 K): 0.00103 | solubility (mole fraction) (in n-methylformamide, 298.15 K): 0.00143 | solubility (mole fraction) (in n-methylformamide, 303.15 K): 0.00197 | solubility (mole fraction) (in n-methylformamide, 308.15 K): 0.00264 | solubility (mole fraction) (in n-methylformamide, 313.15 K): 0.00353 | solubility (mole fraction) (in n-methylformamide, 318.15 K): 0.00461 | solubility (mole fraction) (in n-methylformamide, 323.15 K): 0.00583 | solubility (mole fraction) (in n-propanol, 283.15 K): 4.24e-06 | solubility (mole fraction) (in n-propanol, 288.15 K): 6.13e-06 | solubility (mole fraction) (in n-propanol, 293.15 K): 9.12e-06 | solubility (mole fraction) (in n-propanol, 298.15 K): 1.43e-05 | solubility (mole fraction) (in n-propanol, 303.15 K): 2.02e-05 | solubility (mole fraction) (in n-propanol, 308.15 K): 2.82e-05 | solubility (mole fraction) (in n-propanol, 313.15 K): 3.88e-05 | solubility (mole fraction) (in n-propanol, 318.15 K): 5.29e-05 | solubility (mole fraction) (in n-propanol, 323.15 K): 7.03e-05 | solubility (mole fraction) (in water, 283.15 K): 1.07e-06 | solubility (mole fraction) (in water, 288.15 K): 1.29e-06 | solubility (mole fraction) (in water, 293.15 K): 1.51e-06 | solubility (mole fraction) (in water, 298.15 K): 1.79e-06 | solubility (mole fraction) (in water, 303.15 K): 2.16e-06 | solubility (mole fraction) (in water, 308.15 K): 2.64e-06 | solubility (mole fraction) (in water, 313.15 K): 3.13e-06 | solubility (mole fraction) (in water, 318.15 K): 3.76e-06 | solubility (mole fraction) (in water, 323.15 K): 4.61e-06
